Results taken from ChEMBL document CHEMBL1152406, “Conformationally restricted homotryptamines. Part 5: 3-(trans-2-aminomethylcyclopentyl)indoles as potent selective serotonin reuptake inhibitors” (Bioorg Med Chem Lett, 2009).
Activity calls are given as the source filed them. The calls are words filed in the database; no cut-off is given here.

What was measured:
[1] = target: Sodium-dependent serotonin transporter (Homo sapiens, UniProt P31645); test: Displacement of [125I]RTI-55 from human SERT expressed in HEK293 cells; assay type: cell-based
[2] = target: Sodium-dependent dopamine transporter (Homo sapiens, UniProt Q01959); test: Displacement of [125I]RTI-55 from human DAT expressed in HEK293 cells; assay type: cell-based
[3] = target: Sodium-dependent noradrenaline transporter (Homo sapiens, UniProt P23975); test: Displacement of [125I]nisoxetine from human NET expressed in HEK293 cells; assay type: cell-based
Rattus norvegicus [4] = test: Increase in extracellular serotonin level in frontal cortex of awake and free moving rat at 1 mg/kg, po by microdialysis relative to basal level; assay type: functional
Rattus norvegicus [5] = test: Increase in extracellular serotonin level in frontal cortex of awake and free moving rat at 5 mg/kg, po by microdialysis relative to basal level; assay type: functional
Rattus norvegicus [6] = test: Increase in extracellular serotonin level in frontal cortex of awake and free moving rat at 0.3 to 3 mg/kg, po by microdialysis; assay type: functional, organism-based

Sequence of Sodium-dependent serotonin transporter (P31645 whole entry): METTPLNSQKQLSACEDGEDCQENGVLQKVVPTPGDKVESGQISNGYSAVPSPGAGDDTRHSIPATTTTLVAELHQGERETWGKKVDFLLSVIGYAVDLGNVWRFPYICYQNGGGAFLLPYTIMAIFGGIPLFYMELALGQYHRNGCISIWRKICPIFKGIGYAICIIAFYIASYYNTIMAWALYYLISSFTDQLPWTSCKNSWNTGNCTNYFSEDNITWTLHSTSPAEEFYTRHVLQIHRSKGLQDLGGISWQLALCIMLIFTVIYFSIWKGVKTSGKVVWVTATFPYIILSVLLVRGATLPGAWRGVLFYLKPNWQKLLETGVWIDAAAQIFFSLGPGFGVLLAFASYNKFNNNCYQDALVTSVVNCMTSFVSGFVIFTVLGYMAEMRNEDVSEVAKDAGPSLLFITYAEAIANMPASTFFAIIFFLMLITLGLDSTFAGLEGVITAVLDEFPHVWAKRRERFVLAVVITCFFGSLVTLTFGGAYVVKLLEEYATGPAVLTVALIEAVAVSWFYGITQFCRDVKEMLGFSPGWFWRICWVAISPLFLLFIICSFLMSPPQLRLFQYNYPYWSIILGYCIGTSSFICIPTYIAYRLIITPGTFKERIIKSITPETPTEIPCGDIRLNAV
Sequence of Sodium-dependent dopamine transporter (Q01959 whole entry): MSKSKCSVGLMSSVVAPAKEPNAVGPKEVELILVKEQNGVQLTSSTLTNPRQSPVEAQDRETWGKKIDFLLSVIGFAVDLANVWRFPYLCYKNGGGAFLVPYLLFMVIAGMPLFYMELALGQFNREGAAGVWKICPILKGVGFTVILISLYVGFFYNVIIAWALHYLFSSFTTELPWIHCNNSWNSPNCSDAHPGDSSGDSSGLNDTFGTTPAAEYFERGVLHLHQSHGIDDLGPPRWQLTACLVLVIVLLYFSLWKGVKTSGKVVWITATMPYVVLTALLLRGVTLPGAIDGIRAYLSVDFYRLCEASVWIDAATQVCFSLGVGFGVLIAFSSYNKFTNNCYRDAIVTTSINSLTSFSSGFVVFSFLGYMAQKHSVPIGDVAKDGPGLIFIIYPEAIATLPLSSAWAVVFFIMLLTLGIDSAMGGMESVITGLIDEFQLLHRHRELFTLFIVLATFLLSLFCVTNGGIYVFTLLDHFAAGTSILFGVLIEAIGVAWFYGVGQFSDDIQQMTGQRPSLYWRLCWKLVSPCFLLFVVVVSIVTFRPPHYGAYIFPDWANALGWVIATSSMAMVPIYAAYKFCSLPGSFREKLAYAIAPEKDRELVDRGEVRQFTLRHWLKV
Sequence of Sodium-dependent noradrenaline transporter (P23975 whole entry): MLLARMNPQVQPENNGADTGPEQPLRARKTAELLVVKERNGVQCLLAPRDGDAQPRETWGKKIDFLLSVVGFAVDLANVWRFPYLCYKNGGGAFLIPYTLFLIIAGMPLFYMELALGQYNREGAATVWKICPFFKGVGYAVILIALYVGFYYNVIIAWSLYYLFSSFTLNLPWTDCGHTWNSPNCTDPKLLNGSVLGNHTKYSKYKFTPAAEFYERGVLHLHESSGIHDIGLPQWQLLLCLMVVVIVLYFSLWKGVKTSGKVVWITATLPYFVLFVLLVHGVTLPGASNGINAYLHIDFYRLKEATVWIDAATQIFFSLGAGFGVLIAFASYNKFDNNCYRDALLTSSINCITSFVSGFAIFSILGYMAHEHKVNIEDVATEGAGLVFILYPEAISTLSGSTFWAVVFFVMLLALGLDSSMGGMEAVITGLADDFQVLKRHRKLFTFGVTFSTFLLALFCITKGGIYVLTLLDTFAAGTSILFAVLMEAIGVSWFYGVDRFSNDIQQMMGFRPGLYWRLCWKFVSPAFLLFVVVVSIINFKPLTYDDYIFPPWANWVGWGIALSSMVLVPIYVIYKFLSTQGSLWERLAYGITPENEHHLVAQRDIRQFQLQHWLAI

| Structure (SMILES) | IC50 [1] | further results |
| --- | --- | --- |
| CCNC[C@H]1CCC[C@@H]1c1c[nH]c2ccc(C#N)cc12 (racemic) | 170 nM | – |
| CN(C)C[C@@H]1CCC[C@@H]1c1c[nH]c2ccc(C#N)cc12 (racemic) | 2.6 nM | – |
| CNC[C@H]1CCC[C@@H]1c1c[nH]c2ccc(C#N)cc12 (racemic) | 7 nM | – |
| CN(C)C[C@H]1CCC[C@@H]1c1c[nH]c2ccc(C#N)cc12 (racemic) | 0.32 nM | – |
| CCN(C)C[C@H]1CCC[C@@H]1c1c[nH]c2ccc(C#N)cc12 (racemic) | 10 nM | – |
| CCN(CC)C[C@H]1CCC[C@@H]1c1c[nH]c2ccc(C#N)cc12 (racemic) | 240 nM | – |
| CN(C)C[C@H]1CCC[C@@H]1c1c[nH]c2ccc(C#N)cc12 [listing 1 of 2 here] | 0.13 nM | IC50 [2]: 690 nM; IC50 [3]: 7.9 µM; Activity (Rattus norvegicus [4]): >300%; Activity (Rattus norvegicus [5]): >300% |
| CN(C)C[C@H]1CCC[C@H]1c1c[nH]c2ccc(C#N)cc12 | 130 nM | – |
| CN(C)C[C@@H]1CCC[C@H]1c1c[nH]c2ccc(C#N)cc12 | 58 nM | – |
| CN(C)C[C@H]1CCC[C@@H]1c1c[nH]c2ccc(C#N)cc12 [listing 2 of 2 here] | – | Activity (Rattus norvegicus [6]): Active |
| CN(C)C[C@@H]1CCC[C@@H]1c1c[nH]c2ccc(C#N)cc12 | 1.2 nM | – |
| N#Cc1ccc2[nH]cc([C@H]3CCC[C@@H]3CN3CCCC3)c2c1 (racemic) | 22 nM | – |
| CN(C)C[C@H]1C[C@@H]1c1c[nH]c2ccc(C#N)cc12 | 0.36 nM | IC50 [2]: 4200 nM; IC50 [3]: 9.2 µM |
| CN(Cc1ccccc1)C[C@H]1CCC[C@@H]1c1c[nH]c2ccc(C#N)cc12 (racemic) | 85 nM | – |
